In experiment [1] the target is tubulin. The settings on record: literature values, refs [18], [12], [43]; read-out: dissociation constant (Kd) binding to tubulin; cited from earlier work.
For the next experiment, the system named is vaccinia virus. The experiment can be described thus: Plaque assay of vaccinia virus in BSC-40 cells. It counts as cell-based.
Experiment [2] concerns the target T1, tubulin.
T1 construct: other: double reciprocal plots; 0-100 μM ligand, 2 μM tubulin, 45 min at
Description: Tubulin binding assay (fluorescence titration, quenching of intrinsic tubulin fluorescence). Details: species or system Mammalian. The settings on record: double reciprocal plots; 0-100 μM ligand, 2 μM tubulin, 45 min at 37° C.; read-out: dissociation constant (Kd) binding to tubulin.

Read-outs that look alike come from different tables or passages of the source.

As usually defined, the Kd is the constant that tells how readily two partners part at equilibrium. On to `COc1ccc2c(c1OC)C(=O)O[C@@H]2[C@H]1c2c(c(Br)c3c(c2OC)OCO3)CCN1C` [9-Br-nos, (S)-6,7-dimethoxy-3-((R)-4-methoxy-6-methyl-9-bromo-5,6,7,8-tetrahydro-[1,3]dioxolo[4,5-g]isoquinolin-5-yl)isobenzofuran-1(3H)-one], for which the Kd at tubulin [1] is 54 ± 9.1 µM. The “spread of vaccinia virus in BSC-40 cells” value with vaccinia virus is given as “inhibited”. The prevention of infection result with vaccinia virus (25 uM in 0.1% DMSO) is “does not prevent infection”. Besides, in the experiment with vaccinia virus (25 uM in 0.1% DMSO, FIG. 1), the plaque appearance result is listed as “only small “pinpoint” plaques are evident”.

With `COc1ccc2c(c1OC)C(=O)O[C@@H]2[C@H]1c2c(c(Cl)c3c(c2OC)OCO3)CCN1C` [9-Cl-nos], the dissociation constant (Kd) at tubulin [1] was 40 ± 8 µM.

Consider `COc1ccc2c(c1OC)C(=O)O[C@@H]2[C@H]1c2c(c(F)c3c(c2OC)OCO3)CCN1C` [9-F-nos, (S)-6,7-dimethoxy-3-((R)-4-methoxy-6-methyl-9-fluoro-5,6,7,8-tetrahydro-[1,3]dioxolo[4,5-g]isoquinolin-5-yl)isobenzofuran-1(3H)-one], for which the Kd at tubulin [2] turned out to be 81 ± 8 µM.

`COc1ccc2c(c1OC)C(=O)O[C@@H]2[C@H]1c2c(c(I)c3c(c2OC)OCO3)CCN1C` [9-I-nos, (S)-6,7-dimethoxy-3-((R)-4-methoxy-6-methyl-9-iodo-5,6,7,8-tetrahydro-[1,3]dioxolo[4,5-g]isoquinolin-5-yl)isobenzofuran-1(3H)-one]: the Kd on tubulin [2] was determined as 22 ± 4 µM.

With `COc1ccc2c(c1OC)C(=O)O[C@@H]2[C@H]1c2c(cc3c(c2OC)OCO3)CCN1C` [noscapine, (S)-6,7-dimethoxy-3-((R)-4-methoxy-6-methyl-5,6,7,8-tetrahydro-[1,3]dioxolo[4,5-g]isoquinolin-5-yl)isobenzofuran-1(3H)-one], at tubulin [1], the Kd was 144 ± 2.8 µM.
